Assay results reported in patent US6656956B2, “Benzimidazole derivatives, processes for preparing them and their use as pharmaceutical compositions” (Boehringer Ingelheim Pharma KG, priority 2001, dated 2003).
Counter-ions that a name gives are not always drawn.

Molecular target: T1, rh beta tryptase (Homo sapiens, UniProt Q15661)
T1 construct: purchased Promega
Assay: tryptase inhibition in vitro test (cleavage of N-p-tosyl-Gly-Pro-Lys-para-nitroaniline, p-nitroaniline measured at 405 nm)
Type: biochemical
Conditions: rh beta tryptase 0.91 U/ml, substrate 0.6 mM, Tris HCl buffer with calcium and heparin, pH 7.4, 37° C., 5 minutes incubation; read-out: Tryptase-inhibiting activity
Experimental: The compounds according to the invention are characterised by their tryptase-inhibiting activity. This ability to inhibit tryptase was investigated using the test described below.
The measurement is carried out in Tris HCl buffer (100 mM), which additionally contains calcium (5 mM) and heparin ([…]), at pH 7.4. The standard used is rh beta tryptase which may be obtained commercially from Promega, for example. The substrate used is N-p-tosyl-Gly-Pro-Lys-para-nitroaniline in a concentration of 0.6 mM. The substrate is digested with tryptase to form p-nitroaniline which can be measured at 405 nm. Usually, an incubation period of 5 minutes and an incubation temperature of 37° C. are chosen. The enzyme activity used is 0.91 U/ml. The measurements are carried out in an Autoanalyser (Cobas Bio) made by Hofmann LaRoche. The potential inhibitory substances are used in concentrations of 10 μM in the screening, the inhibition of the tryptase being given in percent. The IC50 is determined at over 70% inhibition (concentration at which 50% of the enzyme activity is inhibited). After 5 minutes' pre-incubation of the potential inhibitory substances, the substrate is added to start the reaction, the formation of p-nitroaniline being taken as a measurement of the enzyme activity after 5 minutes, after testing the linearity.

T1 sequence (Q15661 31-275): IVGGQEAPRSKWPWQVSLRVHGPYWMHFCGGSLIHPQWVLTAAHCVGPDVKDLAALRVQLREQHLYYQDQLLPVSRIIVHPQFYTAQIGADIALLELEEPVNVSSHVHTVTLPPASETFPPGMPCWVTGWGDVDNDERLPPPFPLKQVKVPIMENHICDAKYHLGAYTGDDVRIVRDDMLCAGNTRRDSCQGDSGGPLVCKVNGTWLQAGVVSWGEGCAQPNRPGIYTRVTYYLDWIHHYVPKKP

Row | Compound | IC50 [nM]
1 | CN(C(=O)CN1CCC(Nc2ccccc2C(=N)N)CC1)c1ccc2c(c1)nc(CCc1ccc(C(=N)N)cc1)n2C [Example 40, N-{2-[2-(4-Amidinophenyl)-ethyl]-1-methyl-benzimidazol-5-yl}-N-methyl-2-[4-(2-amidinophenylamino)-piperid-1-yl]-acetamide, dihydrochloride] | 31 to 1000
2 | Cn1c(CCc2ccc(C(=N)N)cc2)nc2cc(N(Cc3cccc4ccccc34)C(=O)CN3CCC(Cc4ccccn4)CC3)ccc21 [Example 20, N-{2-[2-(4-Amidinophenyl)-ethyl]-1-methyl-benzimidazol-5-yl}-N-[naphth-1-ylmethyl]-2-[4-(2-pyridylmethyl)-piperid-1-yl]-acetamide, dihydrochloride] | 4 to 30
3 | Cn1c(CCc2ccc(C(=N)N)cc2)nc2cc(N(Cc3cccc4ccccc34)C(=O)CN3CCC(Nc4ccccc4Cl)CC3)ccc21 [Example 12, N-{2-[2-(4-Amidinophenyl)-ethyl]-1-methyl-benzimidazol-5-yl}-N-[naphth-1-ylmethyl]-2-[4-(2-chlorophenylamino)-piperid-1-yl]-acetamide, dihydrochloride] | 0.5 to 3
4 | CN(CCC(=O)O)C1CCN(CC(=O)N(Cc2cccc3ccccc23)c2ccc3c(c2)nc(CCc2ccc(C(=N)N)cc2)n3C)CC1 [Example 25, N-{2-[2-(4-Amidinophenyl)-ethyl]-1-methyl-benzimidazol-5-yl}-N-[naphth-1-ylmethyl]-2-[4-(N-methyl-N-propionic acid)-piperid-1-yl]-acetamide, diacetate] | 31 to 1000
5 | Cn1c(CCc2ccc(C(=N)N)cc2)nc2cc(N(Cc3cccc4ccccc34)C(=O)CN3CCC(NC(=O)c4ccccc4)CC3)ccc21 [Example 8, N-{2-[2-(4-Amidinophenyl)-ethyl]-1-methyl-benzimidazol-5-yl}-N-[naphth-1-ylmethyl]-2-[4-benzoic acid amide-piperid-1-yl]-acetamide, dihydrochloride] | 4 to 30
6 | CN(C)c1ccc(NC2CCN(CC(=O)N(Cc3cccc4ccccc34)c3ccc4c(c3)nc(CCc3ccc(C(=N)N)cc3)n4C)CC2)cc1 [Example 13, N-{2-[2-(4-Amidinophenyl)-ethyl]-1-methyl-benzimidazol-5-yl}-N-[naphth-1-ylmethyl]-2-[4-(4-dimethylaminophenyl-amino)-piperid-1-yl]-acetamide, trihydrochloride] | 4 to 30
7 | N-{2-[2-(4-Amidinophenyl)-ethyl]-1-methyl-benzimidazol-5- yl}-N-[naphth-1-ylmethyl]-N′-[4-(2-naphthylmethylamino)]- urea, hydrochloride [Example 80] | 31 to 1000
8 | Cn1c(CCc2ccc(C(=N)N)cc2)nc2cc(N(Cc3cccc4ccccc34)C(=O)NC3(Cc4ccccc4)CCNCC3)ccc21 [Example 77, N-{2-[2-(4-Amidinophenyl)-ethyl]-1-methyl-benzimidazol-5-yl}-N-[naphth-1-ylmethyl]-N′-[4-(benzyl)-piperidin-4-yl)-urea, hydrochloride] | 4 to 30
9 | Cn1c(CCc2ccc(C(=N)N)cc2)nc2cc(N(Cc3cccc4ccccc34)C(=O)CN3CCC(Nc4ccncc4)CC3)ccc21 [Example 27, N-{2-[2-(4-Amidinophenyl)-ethyl]-1-methyl-benzimidazol-5-yl}-N-[naphth-1-ylmethyl]-2-[4-(4-pyridylamino)-piperid-1-yl]-acetamide, dihydrochloride] | 4 to 30
10 | CN(C(=O)CN1CCC(N(Cc2ccccc2)C2CCCN2)CC1)c1ccc2c(c1)nc(CCc1ccc(C(=N)N)cc1)n2C (centres unmarked) [Example 43, N-{2-[2-(4-Amidinophenyl)-ethyl]-1-methyl-benzimidazol-5-yl}-N-methyl-2-{4-[(N-benzyl)-2-pyrrolidylamino]-piperid-1-yl}-acetamide, dihydrochloride] | 4 to 30
11 | CN(C(=O)CN1CCC(Nc2ccccc2C(F)(F)F)CC1)c1ccc2c(c1)nc(CCc1ccc(C(=N)N)cc1)n2C [Example 38, N-{2-[2-(4-Amidinophenyl)-ethyl]-1-methyl-benzimidazol-5-yl}-N-methyl-2-[4-(2-trifluoromethylphenylamino)-piperid-1-yl]-acetamide, dihydrochloride] | 4 to 30
12 | CN(C(=O)CN1CCC(Nc2ccccc2Br)CC1)c1ccc2c(c1)nc(CCc1ccc(C(=N)N)cc1)n2C [Example 35, N-{2-[2-(4-Amidinophenyl)-ethyl]-1-methyl-benzimidazol-5-yl}-N-methyl-2-[4-(2-bromophenylamino)-piperid-1-yl]-acetamide, dihydrochloride] | 0.5 to 3
13 | CN(C(=O)CN1CCC(Nc2ccccc2F)CC1)c1ccc2c(c1)nc(CCc1ccc(C(=N)N)cc1)n2C [Example 36, N-{2-[2-(4-Amidinophenyl)-ethyl]-1-methyl-benzimidazol-5-yl}-N-methyl-2-[4-(2-fluorophenylamino)-piperid-1-yl]-acetamide, dihydrochloride] | 0.5 to 3
14 | CN(C(=O)CN1CCC(Nc2ccc3c(c2)Cc2ccccc2-3)CC1)c1ccc2c(c1)nc(CCc1ccc(C(=N)N)cc1)n2C [Example 42, N-{2-[2-(4-Amidinophenyl)-ethyl]-1-methyl-benzimidazol-5-yl}-N-methyl-2-[4-(aminofluorene)-piperid-1-yl]-acetamide, dihydrochloride] | 4 to 30
15 | Cn1c(CCc2ccc(C(=N)N)cc2)nc2cc(N(Cc3cccc4ccccc34)C(=O)NCc3ccccc3)ccc21 [Example 5, N-{2-[2-(4-Amidinophenyl)-ethyl]-1-methyl-benzimidazol-5-yl}-N-(naphth-1-ylmethyl)-N′-benzyl-urea, Hydrochloride] | 31 to 1000

Second part, the compound after the results:

Row | IC50 [nM] | Compound
16 | 0.5 to 3 | Cn1c(CCc2ccc(C(=N)N)cc2)nc2cc(N(Cc3ccccc3)C(=O)CN3CCC(Nc4ccccc4F)CC3)ccc21 [Example 59, N-{2-[2-(4-Amidinophenyl)-ethyl]-1-methyl-benzimidazol-5-yl}-N-benzyl-2-[4-(2-fluorophenylamino)-piperid-1-yl]-acetamide, dihydrochloride]
17 | 31 to 1000 | CC(C)c1ccc(NC2CCN(CC(=O)N(C)c3ccc4c(c3)nc(CCc3ccc(C(=N)N)cc3)n4C)CC2)c(Br)c1 [Example 68, N-{2-[2-(4-Amidinophenyl)-ethyl]-1-methyl-benzimidazol-5-yl}-N-methyl-2-[4-(2-bromo-4-isopropylamino)-piperid-1-yl]-acetamide, dihydrochloride]
18 | 0.5 to 3 | Cn1c(CCc2ccc(C(=N)N)cc2)nc2cc(N(Cc3ccccc3)C(=O)CN3CCC(Nc4ccccc4Cl)CC3)ccc21 [Example 58, N-{2-[2-(4-Amidinophenyl)-ethyl]-1-methyl-benzimidazol-5-yl}-N-benzyl-2-[4-(2-chlorophenylamino)-piperid-1-yl]-acetamide, dihydrochloride]
19 | 4 to 30 | Cn1c(CCc2ccc(C(=N)N)cc2)nc2cc(N(Cc3ccc(N)cc3)C(=O)CN3CCC(Nc4ccccc4)CC3)ccc21 [Example 44, N-{2-[2-(4-Amidinophenyl)-ethyl]-1-methyl-benzimidazol-5-yl}-N-[4-aminophenyl-methyl]-2-(4-phenylamino-piperid-1-yl)-acetamide, dihydrochloride]
20 | 4 to 30 | Cn1c(CCc2ccc(C(=N)N)cc2)nc2cc(N(Cc3ccncc3)C(=O)CN3CCC(Nc4ccccc4)CC3)ccc21 [Example 45, N-{2-[2-(4-Amidinophenyl)-ethyl]-1-methyl-benzimidazol-5-yl}-N-[4-pyridylmethyl]-2-(4-phenylamino-piperid-1-yl)-acetamide, dihydrochloride]
21 | 0.5 to 3 | Cc1ccc(NC2CCN(CC(=O)N(C)c3ccc4c(c3)nc(CCc3ccc(C(=N)N)cc3)n4C)CC2)c(Br)c1 [Example 66, N-{2-[2-(4-Amidinophenyl)-ethyl]-1-methyl-benzimidazol-5-yl}-N-methyl-2-[4-(2-bromo-4-methylamino)-piperid-1-yl]-acetamide, dihydrochloride]
22 | 0.5 to 3 | CN(C(=O)CN1CCC(Nc2cccc(Cl)c2)CC1)c1ccc2c(c1)nc(CCc1ccc(C(=N)N)cc1)n2C [Example 106, N-{2-[2-(4-Amidinophenyl)-ethyl]-1-methyl-benzimidazol-5-yl}-N-methyl-2-[4-(3-chlorophenylamino)-piperid-1-yl]-acetamide, dihydrochloride]
23 | 31 to 1000 | Cn1c(CCc2ccc(C(=N)N)cc2)nc2cc(NC(=O)CN3CCC(Nc4ccccn4)CC3)ccc21 [Example 52, N-{2-[2-(4-Amidinophenyl)-ethyl]-1-methyl-benzimidazol-5-yl}-2-[4-(2-pyridylamino)-piperid-1-yl]-acetamide, dihydrochloride]
24 | 4 to 30 | CN(C(=O)CN1CCC(Nc2ccccc2C(C)(C)C)CC1)c1ccc2c(c1)nc(CCc1ccc(C(=N)N)cc1)n2C [Example 64, dihydrochloride]
25 | 4 to 30 | Cn1c(CCc2ccc(C(=N)N)cc2)nc2cc(N(Cc3ccccc3)C(=O)CN3CCC(Nc4ccccn4)CC3)ccc21 [Example 57, N-{2-[2-(4-Amidinophenyl)-ethyl]-1-methyl-benzimidazol-5-yl}-N-[benzyl]-2-[4-(2-pyridylamino)-piperid-1-yl]-acetamide, dihydrochloride]
26 | 4 to 30 | CN(C(=O)CN1CCC(Nc2ccc(C(F)(F)F)cc2Br)CC1)c1ccc2c(c1)nc(CCc1ccc(C(=N)N)cc1)n2C [Example 67, N-{2-[2-(4-Amidinophenyl)-ethyl]-1-methyl-benzimidazol-5-yl}-N-methyl-2-[4-(2-bromo-4-trifluoromethylamino)-piperid-1-yl]-acetamide, dihydrochloride]
